Assay: Human HepG2 cell viability assay in 384 well format
Format: toxicity, cell-based
Parameters: dose 125 nL, time 70.5 hour; cytotoxicity at 70.5 h: concentration not given beside the values
Settings: HepG2 cells, read-out: Inhibition

SMILES	cytotoxicity at 70.5 h [%]
CCc1ccc(S(=O)(=O)NCCC(O)c2ccoc2)s1 (configuration not stated)	-10.1
COc1ccc(S(=O)(=O)NCCC(O)c2ccoc2)c(C)c1 (configuration not stated)	-5.52
Cc1cc(C(O)CCNC(=O)c2ccc(Cl)s2)c(C)o1 (configuration not stated)	-8.23
COc1ccc(S(=O)(=O)NCCC(O)c2cc(C)oc2C)c(C)c1 (configuration not stated)	-5.42
COC1(CNC(=O)c2cccc(C#N)c2)CCSC1 (configuration not stated)	42.8
COC1(CNC(=O)NCCc2ccccc2)CCSC1 (configuration not stated)	15.9
COc1ncccc1C(=O)Nc1ccccc1-c1ccc(=O)n(C)n1	3.64
COCC(=O)Nc1ccccc1-c1ccc(=O)n(C)n1	-4.15
COc1ccc(C(=O)Nc2ccccc2-c2ccc(=O)n(C)n2)nn1	1.94
Cc1cccc(NC(=O)c2ccc(-n3cncn3)nn2)n1	-1.44
O=C(NCCn1nc(-n2cncn2)ccc1=O)c1ccc(F)cc1F	-5.23
CCSc1ccccc1C(=O)NCCn1nc(-n2cncn2)ccc1=O	-10.2
Cc1csc(C(=O)N2CCC(S(C)(=O)=O)C2)c1 (configuration not stated)	-3.26
O=C(c1ccccn1)N1CCC(S(=O)(=O)c2ccccc2)C1 (configuration not stated)	-9.33
Cc1csc(C(=O)N2CCC(S(C)(=O)=O)CC2)c1	-5.62
O=S(=O)(CC1CCCN1S(=O)(=O)c1cccnc1)c1ccccc1 (configuration not stated)	-8.38
Cc1nn(C)c(C)c1S(=O)(=O)NCC(C)(O)c1ccc2c(c1)OCO2 (configuration not stated)	-1.59
Cn1cnc(S(=O)(=O)NCC2(O)CCc3ccccc32)c1 (configuration not stated)	9.61
Cn1cnc(S(=O)(=O)NCC2CCN(C(=O)Oc3ccccc3)CC2)c1	0.307
O=c1[nH]c2cc(S(=O)(=O)N3CCC(c4ccsc4)CC3)ccc2o1	-5
Cn1cc(C(=O)Nc2ccc(CC(=O)NC3CC3)cc2)nn1	-6.27
Cn1cc(S(=O)(=O)NCc2ccsc2)cn1	13.8

SMILES	cytotoxicity at 70.5 h [%]
Cn1cc(S(=O)(=O)NCC2CCN(C(=O)Oc3ccccc3)CC2)cn1	2.31
COc1ccc(CC(=O)Nc2c(C)nc(N3CCCC3)nc2C)cc1	-2.54
Cc1nc(N2CCCC2)nc(C)c1NC(=O)c1ccco1	-1.46
Cc1nc(N2CCOCC2)nc(C)c1NC(=O)c1ccco1	3.55
Cc1nc(N(C)C)nc(C)c1NS(=O)(=O)c1ccc(OC(F)(F)F)cc1	-6.13
Cc1cc(N2CCCC2)nc(CNS(=O)(=O)Cc2ccccc2)n1	-7.92
CC(=O)N1CCN(c2cc(N(C)C)cnn2)CC1	-3.71
CN(C)c1cnnc(N2CCN(C(=O)CCC3CCCCC3)CC2)c1	-7.83
CN(C)c1cnnc(N2CCN(C(=O)Cc3ccccc3)CC2)c1	-8
CC(=O)N1CCN(c2cnnc(N3CCCC3)c2)CC1	-1.26
CS(=O)(=O)N1CCN(c2cnnc(N3CCCC3)c2)CC1	-12.9
CC(=O)N1CCN(c2cc(N3CCOCC3)cnn2)CC1	6.14
CCOc1ncc(NC(=O)c2ccccn2)c(OCC)n1	-13.3
CCCS(=O)(=O)NCCn1ccc(-c2cccs2)n1	25.9
Cc1nnsc1C(=O)NCc1nn(C2CCCC2)c2c1CCCC2	-5.38
Cn1nc(CNC(=O)c2ccc(OC(F)(F)F)cc2)c2c1CCOC2	2.03
Cc1ccc(N2CCc3sc(C(=O)N4CCOCC4)cc32)nn1	2.34
COCCn1cc2c(n1)C(CNS(C)(=O)=O)OCC2 (configuration not stated)	-2.51
O=C(Nc1ccccc1)C1=NOC2(CCCN(C(=O)N3CCCC3)C2)C1 (configuration not stated)	-0.586
CCOCc1ncn2c1CN(C(=O)Nc1ccc(CC)cc1)CC2	14.1
Cc1cccc(NC(=O)N2CCn3cnc(COCC4CC4)c3C2)c1	-13.2
CCOCc1ncn2c1CN(C(=O)Nc1cccc(F)c1)CC2	-13.3

SMILES	cytotoxicity at 70.5 h [%]
Cc1nc(N(C)C)nc2c1COCC21CCN(C(=O)C2CC2)C1 (configuration not stated)	-3.72
CN(C)c1ncc(-c2cc(C(=O)NC(C)(C)CO)n(CC3CC3)c2)cn1	-12.5
CCOCC1CN(Cc2ccc3c(c2)OCO3)Cc2ncn(C)c21 (configuration not stated)	-10.5
CO[C@@H]1CCN(c2ncc(F)cn2)[C@H]1Cc1cnn(C)c1	-11.6
O=C([C@H]1C[C@H]2[C@H](CCN2Cc2cccs2)O1)N1CCOCC1	-16.9
CC(C)NC(=O)N1CCC2(CC(=O)N(c3ccsc3)C2)C1 (configuration not stated)	-14.3
CC(C)CCC(=O)N1CC[C@@H]2[C@H](CC1)N(S(C)(=O)=O)CCS2(=O)=O	-10.2
O=C([C@H]1CCCO1)N1CCc2ncnc(C3CC3)c2CC1	-11.8
CC(C)Nc1ncnc2c1CCN(Cc1ccoc1)CC2	-12.6
CN(C)Cc1nn(C)c2c1CCN(C(=O)c1cccnc1)C2	-20.7
Cc1cccc(C(=O)N2CCc3c(CN(C)C)nn(C)c3C2)n1	-14.3
COc1cc(N2CC[C@@H](OC)[C@@H]2Cc2cnn(C)c2)ncn1	33.8
O=C(c1cscn1)N1C[C@@H](Oc2cccnc2)[C@H]2OCCC[C@H]21	26.4
COc1cc(N2CC[C@@H]3O[C@H](C(=O)NCC4CC4)C[C@@H]32)ncn1	16.5
COc1cc(N2CC[C@@H]3O[C@@H](C(=O)NCCN(C)C)C[C@@H]32)ncn1	-9.68
O=C(NCC1CCCO1)c1c(-n2cnnn2)sc2c1CCC2 (configuration not stated)	-18.6
CC(C)CCn1[nH]c(CNc2ccccc2)nc1=O	-10.8
CC1(C)Cc2ccccc2-c2nc(NCCO)[nH]c(=O)c21	-8.18
CN1CCc2c(C#N)c(NCc3ccco3)n3cnnc3c2C1	-7.42
O=C(Cn1ccc2ccc(Br)cc21)NCc1ccc(C(=O)O)cc1	-6.34
O=C(c1cc(-n2cnnn2)ccc1Cl)N1CCC2(CC1)OCCO2	-7.22
Cc1cc(O)c(OCC(=O)/N=c2\[nH]cc(C)s2)cn1	-21

SMILES	cytotoxicity at 70.5 h [%]
Cn1cccc1C(=O)N1CCc2c(CNS(C)(=O)=O)cncc2C1	-18.4
Cc1ccc(NCc2cncc3c2CCN(Cc2ccccn2)C3)nn1	-13.4
CNC(=O)CN1CC[C@H]2CN(C(=O)c3cc[nH]n3)C[C@H]2C1	-8.85
Cc1cccc(CN2CC3(CCN(C(=O)N(C)C)CC3)OCC2=O)n1	-0.965
O=C(NCC1CCOCC1)[C@H]1C[C@@H]2CCN(c3nncs3)C[C@@H]2O1	-9.76
COCCNC(=O)[C@H]1C[C@@H]2CCN(c3ccccc3)C[C@H]2O1	-9.93
O=C(NC1CC1)[C@@H]1CCO[C@@H]2CCN(CCc3ccccc3)C[C@@H]21	-6.53
Cn1cc(CN2CCC(F)(F)C3(CCN(c4ncc(F)cn4)C3)C2)cn1 (configuration not stated)	-13.8
O=C([C@@H]1CCO[C@@H]2CCN(CCc3ccccc3)C[C@@H]21)N1CCCC1	15.3
Cn1cc(CN2C[C@H]3CCC[C@@H](CNc4ncccn4)[C@H]3C2)cn1	-3.23
Cn1ccnc1NC[C@@H]1CCC[C@@H]2CN(Cc3cccnc3)C[C@@H]21	14.5
c1ccc(NC[C@@H]2CCC[C@@H]3CN(Cc4cccnc4)C[C@@H]32)nc1	-5.9
CS(=O)(=O)N1CCO[C@H]2[C@@H](Oc3ncccc3F)CC[C@@H]21	-5.41
O=C([C@H]1CC[C@@H]2[C@@H](CCN2Cc2nccs2)O1)N1CCOCC1	-5.21
O=C(NCC1CCOCC1)[C@@H]1C[C@@H]2[C@@H](CCN2Cc2nccs2)O1	-12.1
O=C(c1ccnnc1)N1C[C@H](Oc2ccccn2)[C@H]2OCCC[C@H]21	-8.72
O=C(N[C@@H]1CN(Cc2ccoc2)[C@@H]2CCCO[C@@H]21)C1CC1	-12.9
CC1=N[C@@]2(CC[C@@H]3CN(Cc4ccccc4)C[C@@H]32)C(=O)N1CC1CC1	-21.6
O=C(N1CCOCC1)N1CCc2ncnc(NC3CCC3)c2CC1	-14.5
CC(C)NC(=O)N1CCOC2(CCCN(c3ncccc3F)C2)C1 (configuration not stated)	-13.6
CCN1CCn2c(C)cnc2C12CCN(C(=O)NCC(C)C)CC2	-11.3
CN1CCS(=O)(=O)[C@@H]2CCN(C(=O)CC(C)(C)C)CC[C@@H]21	-3.84

SMILES	cytotoxicity at 70.5 h [%]
Cc1nc(CN2CC[C@@H]3O[C@@H](C(=O)N4CCOCC4)C[C@@H]32)cs1	-9.93
CCN1CCn2c(C)cnc2C12CCN(C(=O)NC)CC2	-6.2
CN(C)C(=O)N[C@H]1CN(Cc2ccc3c(c2)OCO3)[C@@H]2CCCO[C@H]12	-12.8
COCC1Cn2nnc(-c3cnn(C)c3)c2CN1Cc1ccoc1 (configuration not stated)	-8.84
CC(C)NC(=O)N1Cc2nccn2CC(COc2cccnc2)C1 (configuration not stated)	9.72
COc1cc(N2CC[C@H]3O[C@@H](C(=O)NC4CCCC4)CC[C@H]32)ncn1	-9.02
c1cncc(C2COC3(CCN(Cc4nccs4)CC3)C2)c1 (configuration not stated)	-9.69
Cn1cc2c(n1)C(CNCc1ccco1)OCC2 (configuration not stated)	19.8
COCC1CC2(CCN(Cc3ccc(C)o3)CC2)CN1C(C)C (configuration not stated)	-3.1
COCC1CN(Cc2ccc3c(c2)OCO3)Cc2ncn(C)c21 (configuration not stated)	-12.8
COCCN1CCn2c(CN(C)C(C)C)cnc2C1	-7.59
CCN1CCn2c(C)cnc2C12CCN(C(=O)c1ccco1)CC2	-4.85
CCN1CCn2c(C)cnc2C12CCN(C(=O)COC)CC2	25
CCN1CCn2c(C)cnc2C12CCN(C(=O)Cc1ccccc1)CC2	24.6
COc1ccc(CN2CCO[C@H]3[C@H](OCCN4CCCC4)CC[C@@H]32)cc1	-9.88
COCC1c2c(cnn2CC2CC2)CCN1Cc1ccsc1 (configuration not stated)	-20.6
CN1CCN(Cc2cnc3n2CCN(CCc2ccccc2)C3)CC1	19.5
c1cncc(CN2CCO[C@H]3[C@H](OCCN4CCCC4)CC[C@@H]32)c1	-8.38
CN1C(Cn2cccn2)C[C@@H]2CN(Cc3ccccn3)CC[C@@H]21 (some centres not stated)	-10.5
